Test results as given in US7906655B2, “Hepatitis C virus inhibitors” (Bristol-Myers Squibb Company, priority 2008, dated 2011).

System: HCV 1b genotype
Assay: HCV Replicon assay (HCV-neo replicon cells, wild-type)
Assay type: cell-based
Conditions: HCV 1b genotype replicon
In short: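 Assay used wild-type HCV genotype 1b replicon cells carrying neo, with luciferase reporter read-outs in some formats.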

[1] = Hepatitis C virus, class symbols

Row | SMILES | EC50 (class symbols) | EC50 [1] | other results
1 | CSCC[C@H](NC(=O)OCc1ccccc1)c1nc2cc(CCc3ccc4nc([C@H](CCSC)NC(=O)OCc5ccccc5)[nH]c4c3)ccc2[nH]1 [OL4, benzyl ((1S)-1-(5-(2-(2-((1S)-1-(((benzyloxy)carbonyl)amino)-3-(methylsulfanyl)propyl)-1H-benzimidazol-6-yl)ethyl)-1H-benzimidazol-2-yl)-3-(methylsulfanyl)propyl) carbamate] | 4.57 to 99 nM | – | –
2 | O=C(Cc1ccccc1)N1C[C@H](O)C[C@H]1c1nc2cc(C#Cc3ccc4[nH]c([C@@H]5C[C@@H](O)CN5C(=O)Cc5ccccc5)nc4c3)ccc2[nH]1 [Example M37.1, (3R,5S,3′R,5′S)-5,5′-(1,2-ethynediylbis(1H-benzimidazole-5,2-diyl))bis(1-(phenylacetyl)-3-pyrrolidinol)] | – | < 4.57 nM | –
3 | CN(C)CC(=O)N1CCC[C@H]1c1nc2c(-c3ncc(-c4ccc5[nH]c([C@@H]6CCCN6C(=O)[C@@H](c6ccccc6)N(C)C)nc5c4)o3)cccc2[nH]1 [Example J28, (1R)-2-((2S)-2-(5-(2-(2-((2S)-1-((dimethyl-amino)acetyl)-2-pyrrolidinyl)-1H-benzimidazol-4-yl)-1,3-oxazol-5-yl)-1H-benzimidazol-2-yl)-1-pyrrolidinyl)-N,N-dimethyl-2-oxo-1-phenyl-ethanamine] | – | < 4.57 nM | –
4 | C[C@H](NC(=O)[C@H]1CCCO1)c1nc2cc(CCc3ccc4[nH]c([C@H](C)NC(=O)[C@H]5CCCO5)nc4c3)ccc2[nH]1 [OL15, (2R,2′R)—N,N′-(1,2-ethanediylbis(1H-benzimidazole-5,2-diyl(1S)-1,1-ethanediyl))ditetrahydro-2-furancarboxamide] | – | 100 to 999 nM | –
5 | CC(C)(C)OC[C@H](NC(=O)OCc1ccccc1)c1nc2cc(CCc3ccc4nc([C@H](COC(C)(C)C)NC(=O)OCc5ccccc5)[nH]c4c3)ccc2[nH]1 [OL2, benzyl ((1R)-1-(5-(2-(2-((1R)-1-(((benzyloxy)carbonyl)amino)-2-tert-butoxyethyl)-1H-benzimidazol-6-yl)ethyl)-1H-benzimidazol-2-yl)-2-tert-butoxyethyl)carbamate] | – | – | EC50 (Hepatitis C virus, numeric values): 20 nM
6 | C[C@@H](c1nc2cc(C#Cc3ccc4nc([C@H](C)N(C)C(=O)[C@@H](c5ccccc5)N(C)C)[nH]c4c3)ccc2[nH]1)N(C)C(=O)[C@@H](c1ccccc1)N(C)C [Example M35] | < 4.57 nM | – | –
7 | CC(=O)N1CCC[C@H]1c1nc2ccc(C#Cc3ccc4[nH]c([C@@H]5CCCN5C(=O)C5CCC5)nc4c3)cc2[nH]1 [Example M54.31, 5-((2-((2S)-1-acetyl-2-pyrrolidinyl)-1H-benzimidazol-6-yl)ethynyl)-2-((2S)-1-(cyclobutyl-carbonyl)-2-pyrrolidinyl)-1H-benzimidazole] | – | 4.57 to 99 nM | –
8 | COC(=O)N[C@H](C(=O)N1CCC[C@H]1c1nc2cc(Oc3ccc(-c4ccc5[nH]c([C@@H]6CCCN6C(=O)[C@@H](NC(=O)OC)C(C)C)nc5c4)cc3)ccc2[nH]1)C(C)C [Example V12, Methyl((1S)-1-(((2S)-2-(5-(4-(2-((2S)-1-((2S)-2-((methoxycarbonyl)amino)-3-methylbutanoyl)-2-pyrrolidinyl)-1H-benzimidazol-5-yl)phenoxy)-1H-benzimidazol-2-yl)-1-pyrrolidinyl)carbonyl)-2-methylpropyl)carbamate] | – | < 4.57 nM | –
9 | C[C@@H](NC(=O)OCc1ccccc1)c1nc2cc(CCc3ccc4nc([C@@H](C)NC(=O)OCc5ccccc5)[nH]c4c3)ccc2[nH]1 [OL6, benzyl ((1R)-1-(5-(2-(2-(1R)-1-(((benzyloxy)carbonyl)amino)ethyl-1H-benzimidazol-6-yl)ethyl)-1H-benzimidazol-2-yl)ethyl)carbamate] | 100 to 999 nM | – | –
10 | COC(=O)NC(C(=O)N1[C@@H]2C[C@@H]2C[C@H]1c1nc2cc(-c3ccc(Oc4cccc5[nH]c([C@@H]6C[C@H]7C[C@H]7N6C(=O)C(NC(=O)OC)c6ccccc6)nc45)cc3)ccc2[nH]1)c1ccccc1 (stereo partly drawn) [Example V9, methyl (2-((1R,3S,5R)-3-(5-(4-((2-((1R,3S,5R)-2-(((methoxycarbonyl)amino)(phenyl)acetyl)-2-azabicyclo[3.1.0]hex-3-yl)-1H-benzimidazol-4-yl)oxy)phenyl)-1H-benzimidazol-2-yl)-2-azabicyclo[3.1.0]hex-2-yl)-2-oxo-1-phenylethyl) carbamate] | < 4.57 nM | – | –
11 | O=C(Cc1ccccn1)N1CCC[C@H]1c1nc2ccc(C#Cc3ccc4[nH]c([C@@H]5CCCN5C(=O)[C@H]5CCCO5)nc4c3)cc2[nH]1 [Example M48, 5-((2-((2S)-1-(2-pyridinylacetyl)-2-pyrrolidinyl)-1H-benzimidazol-6-yl)ethynyl)-2-((2S)-1-((2R)-tetrahydro-2-furanylcarbonyl)-2-pyrrolidinyl)-1H-benzimidazole] | < 4.57 nM | – | –
12 | O=C(Cc1cccnc1)N1CCC[C@H]1c1nc2ccc(C#Cc3ccc4[nH]c([C@@H]5CCCN5C(=O)[C@H]5CCCO5)nc4c3)cc2[nH]1 [Example M49, 5-((2-((2S)-1-(3-pyridinylacetyl)-2-pyrrolidinyl)-1H-benzimidazol-6-yl)ethynyl)-2-((2S)-1-((2R)-tetrahydro-2-furanylcarbonyl)-2-pyrrolidinyl)-1H-benzimidazole] | – | < 4.57 nM | –
13 | O=C(Cc1ccccc1)N1CCC[C@H]1c1nc2cc(C#Cc3ccc4[nH]c([C@@H]5CCCN5C(=O)Cc5ccccc5)nc4c3)ccc2[nH]1 [Example M37, 5,5′-(1,2-ethynediyl)bis(2-((2S)-1-(phenylacetyl)-2-pyrrolidinyl)-1H-benzimidazole)] | – | < 4.57 nM | –
14 | COC(=O)NC(C(=O)N1[C@@H]2C[C@@H]2C[C@H]1c1nc2cc(Oc3cccc(-c4ccc5[nH]c([C@@H]6C[C@H]7C[C@H]7N6C(=O)C(NC(=O)OC)c6ccccc6)nc5c4)c3)ccc2[nH]1)c1ccccc1 (stereo partly drawn) [Example V5, methyl (2-((1R,3S,5R)-3-(5-(3-((2-((1R,3S,5R)-2-(((methoxycarobnyl)amino)phenyl)acetyl)-2-azabicyclo[3.1.0]hex-3-yl)-1H-benzimidazol-5-yl)oxy)phenyl)-1H-benzimidazol-2-yl)-2-azabicyclo[3.1.0]hex-2-yl)-2-oxo-1-phenylethyl) carbamate] | < 4.57 nM | – | –
15 | O=C(c1cccnc1)N1CCC[C@H]1c1nc2ccc(C#Cc3ccc4[nH]c([C@@H]5CCCN5C(=O)[C@H]5CCCO5)nc4c3)cc2[nH]1 [Example M54.3, 5-((2-((2S)-1-(3-pyridinylcarbonyl)-2-pyrrolidinyl)-1H-benzimidazol-6-yl)ethynyl)-2-((2S)-1-((2R)-tetrahydro-2-furanylcarbonyl)-2-pyrrolidinyl)-1H-benzimidazole] | – | 4.57 to 99 nM | –
16 | O=C(C1CC1)N1CCN(C(=O)OCc2ccccc2)C(c2nc3cc(CCc4ccc5nc(C6CN(C(=O)C7CC7)CCN6C(=O)OCc6ccccc6)[nH]c5c4)ccc3[nH]2)C1 (centres unmarked) [OL12, benzyl 2-(5-(2-(2-(1-((benzyloxy)carbonyl)-4-(cyclopropylcarbonyl)-2-piperazinyl)-1H-benzimidazol-6-yl)ethyl)-1H-benzimidazol-2-yl)-4-(cyclopropylcarbonyl)-1-piperazinecarboxylate] | – | 100 to 999 nM | –
17 | O=C(Cc1cccnc1)N1CCC[C@H]1c1nc2cc(C#Cc3ccc4[nH]c([C@@H]5CCCN5C(=O)Cc5cccnc5)nc4c3)ccc2[nH]1 [Example M11, 5,5′-(1,2-ethynediyl)bis(2-((2S)-1-(3-pyridinylacetyl)-2-pyrrolidinyl)-1H-benzimidazole)] | – | < 4.57 nM | –
